Measured values reported in the supplement of paper PMC10307832.

Columns and labels:
Test in all cases: relative viability (nuclei count vs DMSO), 5 days (fraction); higher = more cells survive
A-427 = tested on: A-427
Method in brief: (§1)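 Lung cancer cell lines were pin-tool dosed in 1536-well plates on the day after seeding, with either a lone drug or a fixed anchor-drug dose plus five library-drug doses (not always all listed) in √10 steps. Nuclei were counted on 4× images after 5 days. Relative viability is the ratio of treated-well to vehicle-well nuclei counts, with each value a median of duplicate plates.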

HCC-15 = tested on: HCC-15
Method in brief: as §1

NCI-H2347 = tested on: NCI-H2347
Method in brief: as §1

PC-3 [JPC-3] = tested on: PC-3 [JPC-3]
Method in brief: as §1

NCI-H1975 = tested on: NCI-H1975
Method in brief: as §1

LC-2-ad = tested on: LC-2-ad
Method in brief: as §1

LXF-289 = tested on: LXF-289
Method in brief: as §1

HCC-78 = tested on: HCC-78
Method in brief: as §1

NCI-H1734 = tested on: NCI-H1734
Method in brief: as §1

NCI-H522 = tested on: NCI-H522
Method in brief: as §1

SW 1573 = tested on: SW 1573
Method in brief: as §1

NCI-H1792 = tested on: NCI-H1792
Method in brief: as §1

NCI-H1755 = tested on: NCI-H1755
Method in brief: as §1

NCI-H2126 = tested on: NCI-H2126
Method in brief: as §1

NCI-H2228 = tested on: NCI-H2228
Method in brief: as §1

NCI-H1915 = tested on: NCI-H1915
Method in brief: as §1

RERF-LC-KJ = tested on: RERF-LC-KJ
Method in brief: as §1

NCI-H647 = tested on: NCI-H647
Method in brief: as §1

NCI-H2342 = tested on: NCI-H2342
Method in brief: as §1

HOP-62 = tested on: HOP-62
Method in brief: as §1

SK-LU-1 = tested on: SK-LU-1
Method in brief: as §1

NCI-H358 = tested on: NCI-H358
Method in brief: as §1

With `COc1nc(C)cnc1NS(=O)(=O)c1cccnc1-c1ccc(-c2nnco2)cc1` [Zibotentan] + CC(=O)c1c(C)c2cnc(Nc3ccc(N4CCNCC4)cn3)nc2n(C2CCCC2)c1=O [Palbociclib] (partner 0.5 µM) the relative viability (A-427; first compound 0.08 µM) was 0.514, the relative viability (A-427; first compound 0.253 µM) was 0.515 and the relative viability (A-427; first compound 0.8 µM) was 0.519. It also gave a relative viability (A-427; first compound 2.53 µM) of 0.559, a relative viability (HCC-15; first compound 0.08 µM) of 0.796 and a relative viability (HCC-15; first compound 0.253 µM) of 0.641. It also gave a relative viability (HCC-15; first compound 0.8 µM) of 0.796, a relative viability (HCC-15; first compound 2.53 µM) of 0.713 and a relative viability (NCI-H2347; first compound 0.08 µM) of 0.407. For the same molecule, the relative viability (NCI-H2347; first compound 0.253 µM) was 0.445, the relative viability (NCI-H2347; first compound 0.8 µM) was 0.439 and the relative viability (NCI-H2347; first compound 2.53 µM) was 0.454. It also gave a relative viability (PC-3 [JPC-3]; first compound 0.08 µM) of 0.556, a relative viability (PC-3 [JPC-3]; first compound 0.253 µM) of 0.548 and a relative viability (PC-3 [JPC-3]; first compound 0.8 µM) of 0.537. For the same molecule, the relative viability (PC-3 [JPC-3]; first compound 2.53 µM) was 0.581, the relative viability (NCI-H1975; first compound 0.08 µM) was 0.517 and the relative viability (NCI-H1975; first compound 0.253 µM) was 0.526. It also gave a relative viability (NCI-H1975; first compound 0.8 µM) of 0.553, a relative viability (NCI-H1975; first compound 2.53 µM) of 0.596 and a relative viability (LC-2-ad; first compound 0.08 µM) of 0.489. For the same molecule, the relative viability (LC-2-ad; first compound 0.253 µM) was 0.459, the relative viability (LC-2-ad; first compound 0.8 µM) was 0.44 and the relative viability (LC-2-ad; first compound 2.53 µM) was 0.508. It also gave a relative viability (LXF-289; first compound 0.08 µM) of 0.577, a relative viability (LXF-289; first compound 0.253 µM) of 0.55 and a relative viability (LXF-289; first compound 0.8 µM) of 0.592. The relative viability (LXF-289; first compound 2.53 µM) was 0.61, the relative viability (HCC-78; first compound 0.08 µM) was 0.464 and the relative viability (HCC-78; first compound 0.253 µM) was 0.488. The relative viability (HCC-78; first compound 0.8 µM) was 0.512, the relative viability (HCC-78; first compound 2.53 µM) was 0.512 and the relative viability (NCI-H1734; first compound 0.08 µM) was 0.337. The relative viability (NCI-H1734; first compound 0.253 µM) was 0.32, the relative viability (NCI-H1734; first compound 0.8 µM) was 0.374 and the relative viability (NCI-H1734; first compound 2.53 µM) was 0.407. For the same molecule, the relative viability (NCI-H522; first compound 0.08 µM) was 0.981, the relative viability (NCI-H522; first compound 0.253 µM) was 0.823 and the relative viability (NCI-H522; first compound 0.8 µM) was 0.919. The relative viability (NCI-H522; first compound 2.53 µM) was 0.855, the relative viability (SW 1573; first compound 0.08 µM) was 0.421 and the relative viability (SW 1573; first compound 0.8 µM) was 0.385. For the same molecule, the relative viability (SW 1573; first compound 2.53 µM) was 0.363, the relative viability (NCI-H1792; first compound 0.08 µM) was 0.77 and the relative viability (NCI-H1792; first compound 0.253 µM) was 0.551. It also gave a relative viability (NCI-H1792; first compound 0.8 µM) of 0.525, a relative viability (NCI-H1792; first compound 2.53 µM) of 0.578 and a relative viability (NCI-H1755; first compound 0.08 µM) of 0.421. The relative viability (NCI-H1755; first compound 0.253 µM) was 0.497, the relative viability (NCI-H1755; first compound 0.8 µM) was 0.447 and the relative viability (NCI-H1755; first compound 2.53 µM) was 0.453. The relative viability (NCI-H2126; first compound 0.08 µM) was 0.316, the relative viability (NCI-H2126; first compound 0.253 µM) was 0.338 and the relative viability (NCI-H2126; first compound 0.8 µM) was 0.34. For the same molecule, the relative viability (NCI-H2126; first compound 2.53 µM) was 0.362, the relative viability (NCI-H2228; first compound 0.08 µM) was 0.762 and the relative viability (NCI-H2228; first compound 0.253 µM) was 0.654. It also gave a relative viability (NCI-H2228; first compound 0.8 µM) of 0.821, a relative viability (NCI-H2228; first compound 2.53 µM) of 0.897 and a relative viability (NCI-H1915; first compound 0.08 µM) of 0.586. The relative viability (NCI-H1915; first compound 0.253 µM) was 0.499, the relative viability (NCI-H1915; first compound 0.8 µM) was 0.546 and the relative viability (NCI-H1915; first compound 2.53 µM) was 0.569. It also gave a relative viability (RERF-LC-KJ; first compound 0.08 µM) of 1.1, a relative viability (RERF-LC-KJ; first compound 0.253 µM) of 0.999 and a relative viability (RERF-LC-KJ; first compound 0.8 µM) of 1.08. The relative viability (RERF-LC-KJ; first compound 2.53 µM) was 1.14, the relative viability (NCI-H647; first compound 0.08 µM) was 0.471 and the relative viability (NCI-H647; first compound 0.253 µM) was 0.358. The relative viability (NCI-H647; first compound 0.8 µM) was 0.361, the relative viability (NCI-H647; first compound 2.53 µM) was 0.469 and the relative viability (NCI-H2342; first compound 0.08 µM) was 0.507. The relative viability (NCI-H2342; first compound 0.253 µM) was 0.557, the relative viability (NCI-H2342; first compound 0.8 µM) was 0.558 and the relative viability (NCI-H2342; first compound 2.53 µM) was 0.506. The relative viability (HOP-62; first compound 0.08 µM) was 0.47, the relative viability (HOP-62; first compound 0.253 µM) was 0.431 and the relative viability (HOP-62; first compound 0.8 µM) was 0.518. It also gave a relative viability (HOP-62; first compound 2.53 µM) of 0.451, a relative viability (SK-LU-1; first compound 0.08 µM) of 0.416 and a relative viability (SK-LU-1; first compound 0.253 µM) of 0.389. It also gave a relative viability (SK-LU-1; first compound 0.8 µM) of 0.367, a relative viability (SK-LU-1; first compound 2.53 µM) of 0.367 and a relative viability (NCI-H358; first compound 0.08 µM) of 0.152. For the same molecule, the relative viability (NCI-H358; first compound 0.253 µM) was 0.117 and the relative viability (NCI-H358; first compound 2.53 µM) was 0.125.
